The numbers were not newly measured in patent US20060089285A1, “Stabilized chlorine bleach in alkaline detergent composition and method of making and using the same” (priority 2004, published 2006), which cites them from elsewhere.

The conditions of data set [1]: in an alkaline liquid detergent; prior art statement.
The conditions of data set [2]: OCl-/HOCl equilibrium, ambient temperature.

Take `OCl` [sodium hypochlorite bleach, Sodium hypochlorite]: the shelf stability result in data set [1] is “about 3 months”.

On to `OCl` [HOCl], for which the pKa in data set [2] is given as 7.5.
